Tests used:
Test in all cases: relative viability (nuclei count vs DMSO), 5 days (fraction); higher = more cells survive
[1] = compound: CC(C)C[C@H](NC(=O)[C@H](CCc1ccccc1)NC(=O)CN1CCOCC1)C(=O)N[C@@H](Cc1ccccc1)C(=O)N[C@@H](CC(C)C)C(=O)[C@@]1(C)CO1 [Carfilzomib] + CC(C)C[C@H](NC(=O)[C@H](Cc1ccccc1)NC(=O)c1cnccn1)B(O)O [Bortezomib] (partner 0.002 µM)
Procedure, shortened: (§1)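 A single step with final 0.05% Triton X-100, 1% formaldehyde and 1 ug/ml Hoechst fixed the cells and stained nuclei 5 days after treatment. Lung cancer cell lines in 1536-well plates had been treated by pin tool the day after seeding with one drug alone or a fixed anchor-drug dose plus five library-drug doses (not always all listed) in √10 steps, and nuclei were counted on 4× images. Relative viability is the ratio of nuclei in treated wells to nuclei in vehicle wells, taken as the median of duplicate plates.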

[2] = compound: CC(C)C[C@H](NC(=O)[C@H](CCc1ccccc1)NC(=O)CN1CCOCC1)C(=O)N[C@@H](Cc1ccccc1)C(=O)N[C@@H](CC(C)C)C(=O)[C@@]1(C)CO1 [Carfilzomib] + CC(=O)c1c(C)c2cnc(Nc3ccc(N4CCNCC4)cn3)nc2n(C2CCCC2)c1=O [Palbociclib] (partner 0.5 µM)
Procedure, shortened: as §1

[3] = compound: CC(C)C[C@H](NC(=O)[C@H](CCc1ccccc1)NC(=O)CN1CCOCC1)C(=O)N[C@@H](Cc1ccccc1)C(=O)N[C@@H](CC(C)C)C(=O)[C@@]1(C)CO1 [Carfilzomib] + Nc1ncn([C@H]2C[C@H](O)[C@@H](CO)O2)c(=O)n1 [Decitabine] (partner 2 µM)
Procedure, shortened: as §1

[4] = compound: CC(C)C[C@H](NC(=O)[C@H](CCc1ccccc1)NC(=O)CN1CCOCC1)C(=O)N[C@@H](Cc1ccccc1)C(=O)N[C@@H](CC(C)C)C(=O)[C@@]1(C)CO1 [Carfilzomib] + NC(=O)Nc1cc(-c2cccc(F)c2)sc1C(=O)N[C@H]1CCCNC1 [AZD7762] (partner 0.2 µM)
Procedure, shortened: as §1

Cell Line | relative viability ([1]; first compound 0.001 µM) | relative viability ([1]; first compound 0.003162 µM) | relative viability ([1]; first compound 0.01 µM) | relative viability ([1]; first compound 0.03162 µM) | relative viability ([1]; first compound 0.1 µM) | relative viability ([2]; first compound 0.001 µM) | relative viability ([2]; first compound 0.003162 µM) | relative viability ([2]; first compound 0.01 µM) | relative viability ([2]; first compound 0.03162 µM) | relative viability ([2]; first compound 0.1 µM) | relative viability ([3]; first compound 0.001 µM) | relative viability ([3]; first compound 0.003162 µM) | relative viability ([3]; first compound 0.01 µM) | relative viability ([3]; first compound 0.03162 µM) | relative viability ([3]; first compound 0.1 µM) | relative viability ([4]; first compound 0.001 µM) | relative viability ([4]; first compound 0.003162 µM) | relative viability ([4]; first compound 0.01 µM) | relative viability ([4]; first compound 0.03162 µM) | relative viability ([4]; first compound 0.1 µM)
201T | 1.09 | 1.06 | 1.1 | 1.09 | 0.732 | 0.355 | 0.357 | 0.383 | 0.345 | 0.31 | 0.818 | 0.901 | 0.798 | 0.873 | 0.795 | 0.67 | 0.574 | 0.626 | 0.591 | 0.461
A549 |  |  |  |  |  |  |  |  |  |  | 0.167 | 0.292 | 0.109 | 0.254 | 0.0302 |  |  |  |  | 
A-427 | 0.995 | 0.963 | 0.727 | 0.436 | 0.131 | 0.543 | 0.56 | 0.515 | 0.509 | 0.188 | 0.587 | 0.565 | 0.591 | 0.527 | 0.178 | 0.725 | 0.82 | 0.696 | 0.527 | 0.173
ABC-1 | 0.334 | 0.231 | 0.242 | 0.27 | 0.225 | 0.831 | 0.736 | 0.441 | 0.273 | 0.253 | 1.24 | 1.34 | 0.539 | 0.274 | 0.285 |  | 0.786 | 0.506 |  | 1.01
BEN | 0.518 | 0.929 | 0.883 | 0.485 | 0.281 | 0.491 | 0.465 | 0.455 | 0.499 | 0.319 | 0.603 | 0.861 | 0.643 | 0.577 | 0.26 | 0.717 | 0.619 | 0.657 | 0.59 | 0.409
CAL-12T |  | 1.17 | 1.13 | 0.691 | 0.195 | 0.507 | 0.507 | 0.586 | 0.165 | 0.145 |  |  |  |  |  | 0.607 | 0.719 | 0.787 | 0.586 | 0.26
COR-L23 | 0.94 | 0.877 | 0.253 | 0.0785 | 0.0696 | 0.29 | 0.305 | 0.211 | 0.0606 | 0.064 | 0.383 | 0.443 | 0.386 | 0.0979 | 0.0901 |  |  |  |  | 
COR-L 105 | 0.724 | 0.658 | 0.527 | 0.265 | 0.239 | 0.413 | 0.414 | 0.35 | 0.317 | 0.329 | 0.621 | 0.752 | 0.751 | 0.466 | 0.34 |  |  |  |  | 
Calu-6 | 0.886 | 0.713 | 0.299 | 0.119 | 0.106 |  |  |  |  |  |  |  |  |  |  |  |  |  |  | 
ChaGo-K-1 |  | 1.25 | 0.851 | 0.501 | 0.381 | 0.926 | 0.931 | 0.907 | 0.313 | 0.153 | 0.476 | 0.55 | 0.494 | 0.322 | 0.174 | 0.813 | 0.898 | 0.855 | 0.542 | 0.152
EBC-1 | 0.524 | 0.317 | 0.149 | 0.119 | 0.168 |  |  |  |  |  |  |  |  |  |  |  |  |  |  | 
EKVX | 1.03 | 1.08 | 1.14 | 0.285 | 0.345 | 0.369 | 0.474 | 0.427 |  | 0.137 | 0.371 | 0.36 | 0.335 |  | 0.128 | 0.318 | 0.782 | 0.756 |  | 0.761
EMC-BAC-2 | 1.03 | 1.06 | 1.07 | 0.66 | 0.448 | 0.531 | 0.539 | 0.51 | 0.455 | 0.316 | 1 | 1.02 | 0.954 | 0.911 | 0.296 | 1.13 | 1.22 | 1.22 | 1.06 | 0.716
EPLC-272H | 0.738 | 0.626 | 0.655 | 0.105 | 0.0698 | 0.285 | 0.337 | 0.317 | 0.114 | 0.0482 | 0.353 | 0.391 | 0.379 | 0.174 | 0.0719 | 0.195 | 0.253 | 0.209 | 0.159 | 0.0687
H3255 | 0.765 | 0.769 | 0.841 | 0.315 | 0.179 | 0.334 | 0.331 | 0.309 | 0.231 | 0.264 | 0.645 | 0.704 | 0.684 |  | 0.185 | 0.849 | 0.982 | 1.13 | 0.795 | 0.237
HARA | 1.2 | 1.05 | 0.394 | 0.0539 | 0.0619 | 0.28 | 0.257 | 0.306 | 0.182 | 0.0965 | 0.669 | 0.747 | 0.704 | 0.192 | 0.119 | 0.454 | 0.232 | 0.398 | 0.18 | 0.146
HCC-15 | 0.979 | 0.978 | 1.01 | 0.481 | 0.0765 | 0.706 | 0.688 | 0.751 | 0.61 | 0.206 | 0.606 | 0.725 | 0.637 | 0.424 | 0.127 | 1.12 | 1.29 | 1.31 | 1.12 | 0.453
HCC-44 | 0.876 | 0.917 | 0.897 | 0.552 | 0.147 | 1.02 | 0.938 | 0.999 | 0.999 | 0.69 | 0.939 | 0.893 | 0.917 | 0.973 | 0.639 | 1.01 | 1.02 | 1.03 | 0.988 | 0.716
HCC-78 | 0.474 | 0.514 | 0.402 | 0.192 | 0.193 | 0.431 | 0.454 | 0.528 | 0.439 | 0.348 | 0.622 | 0.766 | 0.672 | 0.554 | 0.302 | 0.505 | 0.772 | 0.789 | 0.492 | 0.311

Reference: the supplement of paper PMC10307832
